Test results taken from ChEMBL document CHEMBL1201862, “PubChem BioAssay data set” (2004).
Activity calls are given as the source filed them.

Experiments:
[1] = test system: Streptococcus sp. 'group A'; test: growth inhibition of control SK(-) GAS strain, dose response, counter-screen for streptokinase expression inhibitor project, luminescence, kanamycin, BacTiterGlo, confirmation (AID 1900); format: functional, organism-based
[2] = molecular target: T1, Streptokinase A (Streptococcus pyogenes serotype M1, UniProt P10520); test: S. pyogenes streptokinase expression inhibitors, potency, dose response, plasminogen activation absorbance, OD405 (AID 1914); format: functional, Streptococcus pyogenes M1 GAS;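 note: secreted streptokinase activity via plasminogen activation per viability signal from cell pellet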
T1 sequence (P10520 whole entry): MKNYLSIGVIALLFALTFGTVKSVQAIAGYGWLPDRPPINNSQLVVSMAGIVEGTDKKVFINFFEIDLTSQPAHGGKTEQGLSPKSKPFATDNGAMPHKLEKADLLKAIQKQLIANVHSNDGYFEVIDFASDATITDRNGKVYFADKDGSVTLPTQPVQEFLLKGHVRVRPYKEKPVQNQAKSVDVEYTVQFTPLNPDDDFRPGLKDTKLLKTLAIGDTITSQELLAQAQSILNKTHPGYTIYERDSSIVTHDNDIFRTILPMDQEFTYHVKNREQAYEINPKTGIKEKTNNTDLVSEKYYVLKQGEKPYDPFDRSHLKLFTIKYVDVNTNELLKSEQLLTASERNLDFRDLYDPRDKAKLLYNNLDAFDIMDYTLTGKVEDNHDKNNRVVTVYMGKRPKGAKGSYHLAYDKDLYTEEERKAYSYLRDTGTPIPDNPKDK

[3] = test system: Streptococcus; test: Group A Streptococcus viability loss, dose response, counter-screen for streptokinase expression inhibitor project, luminescence, BacTiterGlo (AID 1915); format: functional, organism-based;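 note: potency for reduction of bacterial viability or growth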
[4] = molecular target: G-protein coupled receptor 55 (Homo sapiens, UniProt Q9Y2T6); test: GPR55 agonists via beta-arrestin recruitment, primary screen, imaging, U2OS cells, beta-arrestin-GFP redistribution (AID 1961); format: functional
[5] = Luminescence Cell-Based Dose Retest to Confirm Inhibitors of Cancer Stem Cells. [Related pubchem assays (depositor defined):AID2717, AID2721]; format: functional; settings: Homo sapiens
[6] = molecular target: T2, Mannose-6-phosphate isomerase (Homo sapiens, UniProt P34949); test: inhibitors of human PMI, primary screen, biochemical, fluorescence intensity, coupled assay (AID 1209)
T2 sequence (P34949 whole entry): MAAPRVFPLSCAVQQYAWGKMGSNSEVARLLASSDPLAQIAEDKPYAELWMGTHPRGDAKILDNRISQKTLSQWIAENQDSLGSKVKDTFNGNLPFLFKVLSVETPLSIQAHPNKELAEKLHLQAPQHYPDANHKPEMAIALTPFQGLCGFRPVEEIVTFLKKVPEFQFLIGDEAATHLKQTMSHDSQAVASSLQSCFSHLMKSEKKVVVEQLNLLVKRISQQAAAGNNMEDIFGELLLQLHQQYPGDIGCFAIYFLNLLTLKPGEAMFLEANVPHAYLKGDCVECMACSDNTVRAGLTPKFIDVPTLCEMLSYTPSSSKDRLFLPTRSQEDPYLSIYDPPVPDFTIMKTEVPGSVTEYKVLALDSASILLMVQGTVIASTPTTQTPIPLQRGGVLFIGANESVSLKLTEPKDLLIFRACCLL

[7] = molecular target: Induced myeloid leukemia cell differentiation protein Mcl-1 (Homo sapiens, UniProt Q07820); format: functional
[8] = molecular target: DNA dC->dU-editing enzyme APOBEC-3A (Homo sapiens, UniProt P31941); test: APOBEC3A DNA deaminase inhibitors, dose response, biochemical (AID 504722); format: functional
[9] = molecular target: T3, Short transient receptor potential channel 4 (Mus musculus, UniProt Q9QUQ5); test: mouse TRPC4 channel inhibitors, dose response, cell-based, HEK293 TRPC4/mu-opioid, Fluo-4 calcium (AID 434942); format: functional;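 note: potency of inhibitors blocking the TRPC4 calcium response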
T3 sequence (Q9QUQ5 whole entry): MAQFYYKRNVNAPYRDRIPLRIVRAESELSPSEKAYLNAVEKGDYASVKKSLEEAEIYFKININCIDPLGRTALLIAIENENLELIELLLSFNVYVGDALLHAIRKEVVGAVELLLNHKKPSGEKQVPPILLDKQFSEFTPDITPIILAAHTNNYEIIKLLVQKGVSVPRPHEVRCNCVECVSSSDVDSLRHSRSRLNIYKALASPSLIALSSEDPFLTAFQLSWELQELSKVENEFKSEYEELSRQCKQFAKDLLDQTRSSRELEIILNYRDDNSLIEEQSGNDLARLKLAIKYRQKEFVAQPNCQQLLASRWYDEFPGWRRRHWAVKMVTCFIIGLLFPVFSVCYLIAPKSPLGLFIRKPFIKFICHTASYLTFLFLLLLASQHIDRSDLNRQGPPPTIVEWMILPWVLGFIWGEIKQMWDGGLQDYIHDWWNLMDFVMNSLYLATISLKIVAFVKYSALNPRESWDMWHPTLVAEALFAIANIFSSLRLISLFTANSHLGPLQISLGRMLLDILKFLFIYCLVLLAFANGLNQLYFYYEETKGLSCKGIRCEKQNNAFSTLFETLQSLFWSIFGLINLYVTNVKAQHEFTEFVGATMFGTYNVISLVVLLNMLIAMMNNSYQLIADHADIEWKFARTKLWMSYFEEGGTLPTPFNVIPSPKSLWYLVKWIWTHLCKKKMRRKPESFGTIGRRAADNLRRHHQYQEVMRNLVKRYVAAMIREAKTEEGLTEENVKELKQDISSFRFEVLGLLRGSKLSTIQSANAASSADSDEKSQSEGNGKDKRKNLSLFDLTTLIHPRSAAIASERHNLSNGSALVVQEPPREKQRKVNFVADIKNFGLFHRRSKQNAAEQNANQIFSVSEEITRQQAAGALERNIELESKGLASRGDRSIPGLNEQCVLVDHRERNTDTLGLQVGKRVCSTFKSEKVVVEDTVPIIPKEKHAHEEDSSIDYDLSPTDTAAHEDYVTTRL

[10] = molecular target: DNA dC->dU-editing enzyme APOBEC-3G (Homo sapiens, UniProt Q9HC16); test: Dose Response confirmation of small molecule APOBEC3G DNA Deaminase Inhibitors via a fluorescence-based single-stranded DNA deaminase assay. [Related pubchem assays (depositor defined):AID493012, AID493028]; format: functional
[11] = molecular target: DNA damage-inducible transcript 3 protein (Mus musculus, UniProt P35639); format: functional, Cricetulus griseus
[12] = molecular target: T4, Rac GTPase-activating protein 1 (Homo sapiens, UniProt Q9H0H5); test: MgcRacGAP GTPase-activating activity inhibitors, confirmation, biochemical, ADP Hunter fluorescence, primary and confirmatory (AID 624330); format: functional
T4 sequence (Q9H0H5 whole entry): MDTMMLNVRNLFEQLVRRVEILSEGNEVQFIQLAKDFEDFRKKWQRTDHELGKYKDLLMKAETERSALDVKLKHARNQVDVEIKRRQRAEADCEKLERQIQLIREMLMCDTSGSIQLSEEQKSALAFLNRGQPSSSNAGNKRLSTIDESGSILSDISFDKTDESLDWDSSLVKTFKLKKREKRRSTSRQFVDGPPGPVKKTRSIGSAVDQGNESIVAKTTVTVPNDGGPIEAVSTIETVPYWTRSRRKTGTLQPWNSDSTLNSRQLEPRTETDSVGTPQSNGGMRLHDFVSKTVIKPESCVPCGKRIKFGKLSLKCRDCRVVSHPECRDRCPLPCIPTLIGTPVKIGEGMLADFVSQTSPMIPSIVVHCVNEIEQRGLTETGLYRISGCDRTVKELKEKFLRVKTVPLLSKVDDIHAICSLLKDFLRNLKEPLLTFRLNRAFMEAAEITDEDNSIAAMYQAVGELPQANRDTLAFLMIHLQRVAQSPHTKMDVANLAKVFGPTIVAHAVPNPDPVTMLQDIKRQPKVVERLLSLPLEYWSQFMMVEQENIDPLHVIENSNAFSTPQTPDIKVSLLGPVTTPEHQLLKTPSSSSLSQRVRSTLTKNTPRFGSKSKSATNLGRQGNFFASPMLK

[13] = molecular target: SWI/SNF-related matrix-associated actin-dependent regulator of chromatin subfamily A member 2 (Homo sapiens, UniProt P51531); test: Luminescence-based cell-based high throughput dose response assay to identify activators of the function of SWI/SNF related, matrix associated, actin dependent regulator of chromatin, subfamily a, member 2 (SMARCA2, BRM).; format: functional
[14] = Counterscreen for activators of the function of SWI/SNF related, matrix associated, actin dependent regulator of chromatin, subfamily a, member 2 (SMARCA2, BRM): Luminescence-based cell-based high throughput dose response assay to identify non-selective compounds using the VP16 reporter assay.; format: functional
[15] = molecular target: T2, Mannose-6-phosphate isomerase; test: human PMI inhibitors, high substrate, primary screen, biochemical, fluorescence intensity, high mannose 6-phosphate (AID 1220)
[16] = molecular target: CAAX prenyl protease 2 (Saccharomyces cerevisiae S288c, UniProt Q03530); format: biochemical
[17] = molecular target: Eukaryotic translation initiation factor 4H (Homo sapiens, UniProt Q15056); test: eIF4H inhibition in translation initiation, SAR follow-up (AID 435011); format: functional
[18] = molecular target: Polyadenylate-binding protein 1 (Homo sapiens, UniProt P11940); test: PABP inhibition in translation initiation, SAR follow-up (AID 435018); format: functional
[19] = molecular target: Intestinal-type alkaline phosphatase (Homo sapiens, UniProt P09923); test: Dose Response confirmation of uHTS hits from a small molecule inhibitors of human intestinal alkaline phosphatase via a luminescent assay. [Related pubchem assays (depositor defined):AID2544, AID2574]; format: functional
[20] = molecular target: T5, Corticotropin-releasing factor receptor 2/Corticotropin-releasing factor-binding protein (Homo sapiens, UniProt P24387+Q13324); test: activators of CRF receptor 2 with binding protein – uHTS hits, confirmation (AID 602473); format: functional; settings: read-out: EC50_Mean
T5 sequence (Q13324 whole entry): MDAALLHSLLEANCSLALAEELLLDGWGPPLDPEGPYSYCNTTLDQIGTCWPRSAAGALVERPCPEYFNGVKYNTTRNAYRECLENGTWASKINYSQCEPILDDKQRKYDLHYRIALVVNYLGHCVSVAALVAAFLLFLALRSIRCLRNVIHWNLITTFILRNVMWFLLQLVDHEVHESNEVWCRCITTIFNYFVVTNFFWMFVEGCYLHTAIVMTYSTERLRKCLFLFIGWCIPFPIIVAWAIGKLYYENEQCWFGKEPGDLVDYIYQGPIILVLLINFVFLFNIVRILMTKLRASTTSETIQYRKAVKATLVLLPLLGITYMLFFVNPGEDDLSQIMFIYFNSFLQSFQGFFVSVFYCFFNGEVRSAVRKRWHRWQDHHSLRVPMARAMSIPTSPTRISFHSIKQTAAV
T5 sequence (P24387 whole entry): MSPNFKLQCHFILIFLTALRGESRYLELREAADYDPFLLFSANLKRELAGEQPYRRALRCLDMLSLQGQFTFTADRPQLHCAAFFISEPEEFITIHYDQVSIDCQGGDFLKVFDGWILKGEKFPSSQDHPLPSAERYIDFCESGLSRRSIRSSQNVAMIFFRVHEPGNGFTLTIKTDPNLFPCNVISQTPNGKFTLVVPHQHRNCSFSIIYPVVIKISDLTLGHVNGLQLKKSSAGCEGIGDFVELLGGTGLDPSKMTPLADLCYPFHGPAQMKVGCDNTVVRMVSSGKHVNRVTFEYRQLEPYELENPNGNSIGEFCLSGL

[21] = molecular target: T6, Sentrin-specific protease 1 (Homo sapiens, UniProt Q9P0U3); test: potency of human SENP1 inhibitors, dose response, biochemical, kinetic FRET (AID 651697); format: functional; settings: read-out: IC50_Mean
T6 sequence (Q9P0U3 whole entry): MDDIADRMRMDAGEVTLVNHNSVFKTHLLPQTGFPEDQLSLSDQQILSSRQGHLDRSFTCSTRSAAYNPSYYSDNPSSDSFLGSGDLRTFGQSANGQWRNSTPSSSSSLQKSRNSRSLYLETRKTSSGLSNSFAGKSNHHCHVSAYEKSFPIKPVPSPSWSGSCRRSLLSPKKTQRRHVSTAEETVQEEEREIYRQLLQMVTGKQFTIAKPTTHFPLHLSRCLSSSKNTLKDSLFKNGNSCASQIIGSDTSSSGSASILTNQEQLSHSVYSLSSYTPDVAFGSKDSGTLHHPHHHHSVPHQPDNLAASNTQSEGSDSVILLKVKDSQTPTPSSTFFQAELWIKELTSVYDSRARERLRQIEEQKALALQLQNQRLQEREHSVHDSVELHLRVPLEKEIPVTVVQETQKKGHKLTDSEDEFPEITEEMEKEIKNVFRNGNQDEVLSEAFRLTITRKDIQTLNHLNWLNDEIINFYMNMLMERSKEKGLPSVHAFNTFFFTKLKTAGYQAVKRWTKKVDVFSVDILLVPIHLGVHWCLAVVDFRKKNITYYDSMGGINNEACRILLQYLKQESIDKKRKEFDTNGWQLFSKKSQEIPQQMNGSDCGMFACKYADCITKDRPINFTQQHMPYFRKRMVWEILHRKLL

[22] = molecular target: T6, Sentrin-specific protease 1; test: Dose response confirmation of small molecule inhibitors of the catalytic domain of the SUMO protease, SENP1 in a FRET assay.; format: functional; settings: read-out: IC50_Mean

Sequence of DNA dC->dU-editing enzyme APOBEC-3A (P31941 whole entry): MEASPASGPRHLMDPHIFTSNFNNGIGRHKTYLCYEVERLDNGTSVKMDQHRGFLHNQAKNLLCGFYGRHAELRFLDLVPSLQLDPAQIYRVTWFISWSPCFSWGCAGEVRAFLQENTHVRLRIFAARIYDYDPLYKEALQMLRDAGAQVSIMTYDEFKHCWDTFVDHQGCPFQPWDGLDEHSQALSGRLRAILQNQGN
Sequence of G-protein coupled receptor 55 (Q9Y2T6 whole entry): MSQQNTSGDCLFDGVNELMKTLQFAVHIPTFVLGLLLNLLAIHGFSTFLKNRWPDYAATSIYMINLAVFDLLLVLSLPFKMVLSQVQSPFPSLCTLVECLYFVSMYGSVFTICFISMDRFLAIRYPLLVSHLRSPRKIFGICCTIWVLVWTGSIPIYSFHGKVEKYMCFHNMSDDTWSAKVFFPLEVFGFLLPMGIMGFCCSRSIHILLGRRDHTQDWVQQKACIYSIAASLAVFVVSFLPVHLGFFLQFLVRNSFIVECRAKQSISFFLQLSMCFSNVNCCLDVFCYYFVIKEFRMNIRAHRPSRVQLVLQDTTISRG
Sequence of DNA dC->dU-editing enzyme APOBEC-3G (Q9HC16 whole entry): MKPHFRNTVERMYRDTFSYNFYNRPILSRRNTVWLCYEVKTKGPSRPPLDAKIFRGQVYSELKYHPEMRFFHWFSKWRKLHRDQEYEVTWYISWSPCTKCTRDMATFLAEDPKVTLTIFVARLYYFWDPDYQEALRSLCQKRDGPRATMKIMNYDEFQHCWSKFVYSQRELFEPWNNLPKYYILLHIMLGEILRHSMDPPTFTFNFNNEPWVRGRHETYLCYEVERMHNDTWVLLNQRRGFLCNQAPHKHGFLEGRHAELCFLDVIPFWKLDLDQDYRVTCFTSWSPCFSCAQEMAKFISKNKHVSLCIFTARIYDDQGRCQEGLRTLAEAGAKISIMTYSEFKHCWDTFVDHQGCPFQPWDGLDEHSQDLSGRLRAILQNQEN
Sequence of Polyadenylate-binding protein 1 (P11940 whole entry): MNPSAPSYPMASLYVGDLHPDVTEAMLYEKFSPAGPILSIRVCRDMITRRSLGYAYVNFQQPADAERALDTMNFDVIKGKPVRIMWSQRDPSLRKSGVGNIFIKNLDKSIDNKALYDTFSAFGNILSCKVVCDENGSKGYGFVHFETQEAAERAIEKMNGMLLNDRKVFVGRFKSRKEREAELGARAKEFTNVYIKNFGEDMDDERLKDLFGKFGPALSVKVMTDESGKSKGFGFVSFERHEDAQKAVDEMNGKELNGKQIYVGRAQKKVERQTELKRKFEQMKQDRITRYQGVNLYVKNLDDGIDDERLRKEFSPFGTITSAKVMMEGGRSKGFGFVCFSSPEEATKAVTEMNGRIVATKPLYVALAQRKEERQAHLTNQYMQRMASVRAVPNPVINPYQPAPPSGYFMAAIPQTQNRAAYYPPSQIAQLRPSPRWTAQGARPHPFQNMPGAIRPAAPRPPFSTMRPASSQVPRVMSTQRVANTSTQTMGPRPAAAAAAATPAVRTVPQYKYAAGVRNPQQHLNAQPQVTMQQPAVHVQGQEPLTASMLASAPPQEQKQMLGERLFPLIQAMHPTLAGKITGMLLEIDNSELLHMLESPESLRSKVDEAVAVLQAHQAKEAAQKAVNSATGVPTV
Sequence of DNA damage-inducible transcript 3 protein (P35639 whole entry): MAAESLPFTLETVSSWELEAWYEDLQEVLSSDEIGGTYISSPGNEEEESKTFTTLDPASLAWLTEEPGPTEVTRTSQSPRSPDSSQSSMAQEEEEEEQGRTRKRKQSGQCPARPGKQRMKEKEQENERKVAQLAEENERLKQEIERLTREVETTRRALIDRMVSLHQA
Sequence of Induced myeloid leukemia cell differentiation protein Mcl-1 (Q07820 whole entry): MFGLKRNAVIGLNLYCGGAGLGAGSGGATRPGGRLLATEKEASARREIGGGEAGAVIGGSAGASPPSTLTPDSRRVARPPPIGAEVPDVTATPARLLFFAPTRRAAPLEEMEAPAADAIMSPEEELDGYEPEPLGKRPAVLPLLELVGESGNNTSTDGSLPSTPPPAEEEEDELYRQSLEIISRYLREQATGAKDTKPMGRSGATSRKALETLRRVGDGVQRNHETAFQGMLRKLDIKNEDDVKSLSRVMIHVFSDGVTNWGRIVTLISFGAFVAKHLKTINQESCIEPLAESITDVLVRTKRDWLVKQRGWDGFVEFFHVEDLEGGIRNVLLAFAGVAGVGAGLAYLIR
Sequence of Intestinal-type alkaline phosphatase (P09923 whole entry): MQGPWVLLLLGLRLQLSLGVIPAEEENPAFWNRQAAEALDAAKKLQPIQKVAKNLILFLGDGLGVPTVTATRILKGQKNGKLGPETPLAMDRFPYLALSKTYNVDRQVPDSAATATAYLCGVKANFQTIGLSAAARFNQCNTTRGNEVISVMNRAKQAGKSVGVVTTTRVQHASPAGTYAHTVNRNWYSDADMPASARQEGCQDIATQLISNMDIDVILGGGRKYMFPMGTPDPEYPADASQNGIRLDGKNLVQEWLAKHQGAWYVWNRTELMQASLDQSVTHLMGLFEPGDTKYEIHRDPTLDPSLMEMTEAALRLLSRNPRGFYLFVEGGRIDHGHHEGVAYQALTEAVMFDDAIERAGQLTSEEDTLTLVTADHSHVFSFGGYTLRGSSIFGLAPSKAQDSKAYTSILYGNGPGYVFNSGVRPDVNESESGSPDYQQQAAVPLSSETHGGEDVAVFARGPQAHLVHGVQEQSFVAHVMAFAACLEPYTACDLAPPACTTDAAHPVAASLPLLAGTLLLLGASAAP
Sequence of SWI/SNF-related matrix-associated actin-dependent regulator of chromatin subfamily A member 2 (P51531 whole entry): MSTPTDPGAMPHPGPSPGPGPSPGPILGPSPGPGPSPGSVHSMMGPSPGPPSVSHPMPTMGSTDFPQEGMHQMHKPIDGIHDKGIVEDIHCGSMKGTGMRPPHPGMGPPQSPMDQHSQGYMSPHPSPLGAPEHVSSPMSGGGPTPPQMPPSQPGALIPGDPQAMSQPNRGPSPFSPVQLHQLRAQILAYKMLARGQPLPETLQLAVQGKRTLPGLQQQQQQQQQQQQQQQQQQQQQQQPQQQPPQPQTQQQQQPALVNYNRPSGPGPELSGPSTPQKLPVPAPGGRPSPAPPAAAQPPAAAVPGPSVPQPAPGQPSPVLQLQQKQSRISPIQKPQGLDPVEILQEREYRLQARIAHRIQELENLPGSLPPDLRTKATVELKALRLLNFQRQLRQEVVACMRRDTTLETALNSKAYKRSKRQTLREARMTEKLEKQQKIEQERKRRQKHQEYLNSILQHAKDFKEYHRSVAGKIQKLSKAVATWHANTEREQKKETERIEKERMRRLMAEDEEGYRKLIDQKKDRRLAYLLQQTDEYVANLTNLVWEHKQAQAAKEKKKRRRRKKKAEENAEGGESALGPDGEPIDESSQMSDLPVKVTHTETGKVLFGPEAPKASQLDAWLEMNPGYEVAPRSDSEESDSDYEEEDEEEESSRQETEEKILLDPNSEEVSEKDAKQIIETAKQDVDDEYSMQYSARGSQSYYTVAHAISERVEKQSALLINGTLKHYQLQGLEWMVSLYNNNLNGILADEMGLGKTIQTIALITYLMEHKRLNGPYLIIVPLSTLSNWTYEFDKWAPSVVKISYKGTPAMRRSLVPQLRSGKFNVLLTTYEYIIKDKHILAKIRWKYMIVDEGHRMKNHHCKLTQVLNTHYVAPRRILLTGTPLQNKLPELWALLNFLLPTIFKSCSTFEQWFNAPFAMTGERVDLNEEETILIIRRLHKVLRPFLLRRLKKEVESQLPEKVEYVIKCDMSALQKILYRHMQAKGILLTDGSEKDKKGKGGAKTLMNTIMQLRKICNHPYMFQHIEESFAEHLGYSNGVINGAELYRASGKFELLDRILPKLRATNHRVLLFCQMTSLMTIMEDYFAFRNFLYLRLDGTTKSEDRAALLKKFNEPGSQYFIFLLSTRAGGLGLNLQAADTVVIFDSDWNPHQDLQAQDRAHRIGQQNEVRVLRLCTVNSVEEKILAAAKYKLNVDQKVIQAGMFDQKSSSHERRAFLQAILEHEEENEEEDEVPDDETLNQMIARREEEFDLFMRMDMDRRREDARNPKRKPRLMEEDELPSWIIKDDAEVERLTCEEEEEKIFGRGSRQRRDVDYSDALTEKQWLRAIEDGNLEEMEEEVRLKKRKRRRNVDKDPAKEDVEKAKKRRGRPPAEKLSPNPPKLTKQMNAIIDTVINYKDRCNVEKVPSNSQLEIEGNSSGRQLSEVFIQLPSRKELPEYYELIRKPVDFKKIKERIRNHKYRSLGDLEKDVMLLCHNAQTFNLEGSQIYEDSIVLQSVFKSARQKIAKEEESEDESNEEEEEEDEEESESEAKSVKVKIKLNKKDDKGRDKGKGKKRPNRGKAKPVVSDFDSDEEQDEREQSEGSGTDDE
Sequence of CAAX prenyl protease 2 (Q03530 whole entry): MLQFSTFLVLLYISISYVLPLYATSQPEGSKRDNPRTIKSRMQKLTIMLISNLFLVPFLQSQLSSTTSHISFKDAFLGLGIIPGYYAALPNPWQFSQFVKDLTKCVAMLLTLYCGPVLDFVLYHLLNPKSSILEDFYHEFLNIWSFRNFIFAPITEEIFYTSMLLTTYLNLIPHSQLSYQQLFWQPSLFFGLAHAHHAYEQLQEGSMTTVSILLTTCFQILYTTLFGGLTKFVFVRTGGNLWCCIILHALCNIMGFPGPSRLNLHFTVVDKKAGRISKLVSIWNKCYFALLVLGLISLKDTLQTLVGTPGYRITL

CC(C)Cn1c(O)c(N=NC(=O)c2cccc(S(=O)(=O)N3CCCCC3)c2)c2ccccc21
EC50 [1]: 5.53 µM (active) | EC50 [2]: > 150 µM (not active) | EC50 [3]: 34.3 µM (active) | EC50 [4]: 4.75 µM (active) | AC50 [5]: 20.5 µM (active)

CC(=O)C1=C(S(=O)(=O)c2ccc(C)cc2)CS(=O)(=O)C1
IC50 [6]: 28.1 µM (active) | IC50 [7]: 10.9 µM (active) | IC50 [8]: > 100 µM (inactive) | EC50 [9]: 4.73 µM (active) | IC50 [10]: 8.26 µM (active) | Absolute IC50 (CHOP) [11]: 10 µM | IC50 [12]: 34.3 µM (active) | EC50 [13]: > 91.2 µM (inactive) | EC50 [14]: > 91.2 µM (inactive)

OCCN(CCO)c1ccc2ccccc2c1
IC50 [6]: 21.3 µM (active) | IC50 [15]: > 50 µM (not active) | AC50 [16]: 63.8 µM (active) | IC50 [12]: 56.3 µM (active)

Cc1cccc(NC(=O)CSc2ccc(-c3ccco3)nn2)c1
IC50 [17]: > 100 µM (inactive) | IC50 [18]: > 100 µM (inactive)

Cc1ccc2c(c1)nnc1nnc(SCC(=O)O)n12
IC50 [19]: > 100 µM (inactive) | EC50 [20]: > 53 µM (inactive) | IC50 [21]: 9.05 µM (active) | IC50 [22]: 10.9 µM (active)

Cc1c(C(=O)c2ccc(Cl)c(Cl)c2)cnc2cc3c(cc12)OCO3
EC50 [4]: > 32 µM (inactive)

COc1cc([N+](=O)[O-])ccc1NC(=O)COC(=O)c1ccc2c(c1)NC(=O)CS2
IC50 [17]: 5.18 µM (active) | IC50 [18]: > 100 µM (inactive)

Sc1nnc(COc2ccccc2)n1/N=C/c1ccncc1
IC50 [8]: > 100 µM (inactive) | IC50 [10]: 3.12 µM (active)
